Experimental data published in ChEMBL document CHEMBL3885861, “Open TG-GATES”.

Organism: Rattus norvegicus
Test: Open TG-GATES - Regimen: Single
Assay type: toxicity, organism-based, Sprague-Dawley
Set-up: regimen Single, gender Male, age 6 weeks
Conditions: in vivo, iv, 12 mg/kg, route intravenous injection, dose level Low; for APTT / Bas / Eos / Fbg / Hb / Ht / Lym / MCH / MCHC / MCV / Mono / Neu / PT / Plat / RBC / Ret / WBC: tissue Blood; for KIDNEY_L / KIDNEY_R / KIDNEY_TOTAL: tissue Kidney; for LIVER: tissue Liver; for A/G / ALP / ALT / AST / BUN / CRE / Ca / Cl / DBIL / GLC / IP / K / LDH / Na / PL / RALB / TBIL / TC / TG / TP / gamma-GTP: tissue Plasma

Work on `CN(C)c1ncnc2c1ncn2[C@@H]1O[C@H](CO)[C@@H](N)[C@H]1O` [PUROMYCIN AMINONUCLEOSIDE] yielded a TERMINAL_BW (3 h) of 215.3 g, an APTT (3 h) of 22.9 s and a Bas (3 h) of 0%. It also gave an Eos (3 h) of 0.8%, a Fbg (3 h) of 276 mg/dL and a Hb (3 h) of 13.1 g/dL. It also gave a Ht (3 h) of 38.5%, a Lym (3 h) of 69.6% and an MCH (3 h) of 21.4 pg. The MCHC (3 h) was 33.9%, the MCV (3 h) was 63.1 fL and the Mono (3 h) was 4%. The Neu (3 h) was 24.4%, the PT (3 h) was 16 s and the Plat (3 h) was 119.9 x10_4/uL. It also gave an RBC (3 h) of 611.4 x10_4/ul, a Ret (3 h) of 6.4% and a WBC (3 h) of 112.8 x10_2/uL. The KIDNEY_L (3 h) was 1 g, the KIDNEY_R (3 h) was 1 g and the KIDNEY_TOTAL (3 h) was 1.9 g. It also gave an LIVER (3 h) of 10 g, an A/G (3 h) of 1.3 and an ALP (3 h) of 1670.4 IU/L. The ALT (3 h) was 45.2 IU/L, the AST (3 h) was 76.6 IU/L and the BUN (3 h) was 13.6 mg/dL. For the same compound, the CRE (3 h) was 0.2 mg/dL, the Ca (3 h) was 11 mg/dL and the Cl (3 h) was 105.6 meq/L. For the same compound, the DBIL (3 h) was 0 mg/dL, the GLC (3 h) was 181.6 mg/dL and the IP (3 h) was 7.8 mg/dL. The K (3 h) was 4.2 meq/L, the LDH (3 h) was 180.2 IU/L and the Na (3 h) was 141.4 meq/L. It also gave a PL (3 h) of 143.4 mg/dL, an RALB (3 h) of 3 g/dL and a TBIL (3 h) of 0.02 mg/dL. It also gave a TC (3 h) of 73.2 mg/dL, a TG (3 h) of 72.4 mg/dL and a TP (3 h) of 5.4 g/dL. It also gave a gamma-GTP (3 h) of 1 IU/L, a TERMINAL_BW (6 h) of 208.1 g and an APTT (6 h) of 22.9 s. For the same compound, the Bas (6 h) was 0%, the Eos (6 h) was 0.8% and the Fbg (6 h) was 316.4 mg/dL. It also gave a Hb (6 h) of 13.1 g/dL, a Ht (6 h) of 39.2% and a Lym (6 h) of 72.8%. The MCH (6 h) was 20.5 pg, the MCHC (6 h) was 33.5% and the MCV (6 h) was 61 fL. For the same compound, the Mono (6 h) was 3.2%, the Neu (6 h) was 22.2% and the PT (6 h) was 15.9 s. For the same compound, the Plat (6 h) was 119.1 x10_4/uL, the RBC (6 h) was 643 x10_4/ul and the Ret (6 h) was 6.5%. It also gave a WBC (6 h) of 104.4 x10_2/uL, a KIDNEY_L (6 h) of 0.9 g and a KIDNEY_R (6 h) of 0.9 g. It also gave a KIDNEY_TOTAL (6 h) of 1.8 g, an LIVER (6 h) of 8.9 g and an A/G (6 h) of 1.3. For the same compound, the ALP (6 h) was 1246 IU/L, the ALT (6 h) was 37.4 IU/L and the AST (6 h) was 71.2 IU/L. The BUN (6 h) was 11.6 mg/dL, the CRE (6 h) was 0.1 mg/dL and the Ca (6 h) was 11.1 mg/dL. The Cl (6 h) was 105.6 meq/L, the DBIL (6 h) was 0 mg/dL and the GLC (6 h) was 182.4 mg/dL. It also gave an IP (6 h) of 9 mg/dL, a K (6 h) of 4.3 meq/L and an LDH (6 h) of 153.4 IU/L. It also gave a Na (6 h) of 140.4 meq/L, a PL (6 h) of 136.8 mg/dL and an RALB (6 h) of 3 g/dL. For the same compound, the TBIL (6 h) was 0.026 mg/dL, the TC (6 h) was 71.4 mg/dL and the TG (6 h) was 83 mg/dL. The TP (6 h) was 5.5 g/dL, the gamma-GTP (6 h) was 1.2 IU/L and the TERMINAL_BW (9 h) was 212.5 g. For the same compound, the APTT (9 h) was 21.5 s, the Bas (9 h) was 0% and the Eos (9 h) was 1%. For the same compound, the Fbg (9 h) was 306.4 mg/dL, the Hb (9 h) was 12.5 g/dL and the Ht (9 h) was 37.4%. It also gave a Lym (9 h) of 75%, an MCH (9 h) of 20.6 pg and an MCHC (9 h) of 33.5%. The MCV (9 h) was 61.7 fL, the Mono (9 h) was 2.8% and the Neu (9 h) was 20.6%. For the same compound, the PT (9 h) was 16.2 s, the Plat (9 h) was 130.4 x10_4/uL and the RBC (9 h) was 607.8 x10_4/ul. The Ret (9 h) was 7.7%, the WBC (9 h) was 98.3 x10_2/uL and the KIDNEY_L (9 h) was 1 g. The KIDNEY_R (9 h) was 1 g, the KIDNEY_TOTAL (9 h) was 1.9 g and the LIVER (9 h) was 8.5 g. The A/G (9 h) was 1.3, the ALP (9 h) was 1182.4 IU/L and the ALT (9 h) was 35.4 IU/L. It also gave an AST (9 h) of 69.6 IU/L, a BUN (9 h) of 10.6 mg/dL and a CRE (9 h) of 0.2 mg/dL. For the same compound, the Ca (9 h) was 11.1 mg/dL, the Cl (9 h) was 105.4 meq/L and the DBIL (9 h) was 0 mg/dL. For the same compound, the GLC (9 h) was 174 mg/dL, the IP (9 h) was 9.9 mg/dL and the K (9 h) was 4.3 meq/L. The LDH (9 h) was 129.8 IU/L, the Na (9 h) was 141.6 meq/L and the PL (9 h) was 132.6 mg/dL. For the same compound, the RALB (9 h) was 3 g/dL, the TBIL (9 h) was 0.03 mg/dL and the TC (9 h) was 71.2 mg/dL. The TG (9 h) was 81.4 mg/dL, the TP (9 h) was 5.4 g/dL and the gamma-GTP (9 h) was 1.2 IU/L. For the same compound, the TERMINAL_BW (24 h) was 220.5 g, the APTT (24 h) was 21.8 s and the Bas (24 h) was 0%. For the same compound, the Eos (24 h) was 1%, the Fbg (24 h) was 309.4 mg/dL and the Hb (24 h) was 13 g/dL. For the same compound, the Ht (24 h) was 37.8%, the Lym (24 h) was 82% and the MCH (24 h) was 20.8 pg. The MCHC (24 h) was 34.4%, the MCV (24 h) was 60.5 fL and the Mono (24 h) was 2.6%. The Neu (24 h) was 13.6%, the PT (24 h) was 15.9 s and the Plat (24 h) was 114.8 x10_4/uL. For the same compound, the RBC (24 h) was 627.2 x10_4/ul, the Ret (24 h) was 6.2% and the WBC (24 h) was 91 x10_2/uL. It also gave a KIDNEY_L (24 h) of 1 g, a KIDNEY_R (24 h) of 1 g and a KIDNEY_TOTAL (24 h) of 2 g. For the same compound, the LIVER (24 h) was 9.9 g, the A/G (24 h) was 1.2 and the ALP (24 h) was 1421.6 IU/L. For the same compound, the ALT (24 h) was 43 IU/L, the AST (24 h) was 72.2 IU/L and the BUN (24 h) was 17.8 mg/dL. It also gave a CRE (24 h) of 0.2 mg/dL, a Ca (24 h) of 11.1 mg/dL and a Cl (24 h) of 104.4 meq/L. It also gave a DBIL (24 h) of 0 mg/dL, a GLC (24 h) of 188.6 mg/dL and an IP (24 h) of 8.6 mg/dL. The K (24 h) was 4.3 meq/L, the LDH (24 h) was 156.6 IU/L and the Na (24 h) was 141.4 meq/L. For the same compound, the PL (24 h) was 153 mg/dL, the RALB (24 h) was 3.1 g/dL and the TBIL (24 h) was 0.018 mg/dL. For the same compound, the TC (24 h) was 75.8 mg/dL, the TG (24 h) was 119.4 mg/dL and the TP (24 h) was 5.5 g/dL. For the same compound, the gamma-GTP (24 h) was 1.2 IU/L.
